Source: article doi:10.1101/2021.11.05.467508v1, “Biochemical analysis of deacetylase activity of rice sirtuin OsSRT1, a class IV member in plants” (biorxiv, 2021)
Like-named read-outs stand apart in the source and are kept apart here.

Columns and labels:
OsSRT1 (FL) [1] = molecular target: T1, OsSRT1 (FL) (Oryza sativa, UniProt B8ARK7); assay: dot blot deacetylation assay, H3K9Ac; type: biochemical
T1 construct: gene SRT1; full length 1-483, cloned from rice leaf cDNA into pET30a, His-tagged, monomer by SEC
T1 sequence (B8ARK7 1-483): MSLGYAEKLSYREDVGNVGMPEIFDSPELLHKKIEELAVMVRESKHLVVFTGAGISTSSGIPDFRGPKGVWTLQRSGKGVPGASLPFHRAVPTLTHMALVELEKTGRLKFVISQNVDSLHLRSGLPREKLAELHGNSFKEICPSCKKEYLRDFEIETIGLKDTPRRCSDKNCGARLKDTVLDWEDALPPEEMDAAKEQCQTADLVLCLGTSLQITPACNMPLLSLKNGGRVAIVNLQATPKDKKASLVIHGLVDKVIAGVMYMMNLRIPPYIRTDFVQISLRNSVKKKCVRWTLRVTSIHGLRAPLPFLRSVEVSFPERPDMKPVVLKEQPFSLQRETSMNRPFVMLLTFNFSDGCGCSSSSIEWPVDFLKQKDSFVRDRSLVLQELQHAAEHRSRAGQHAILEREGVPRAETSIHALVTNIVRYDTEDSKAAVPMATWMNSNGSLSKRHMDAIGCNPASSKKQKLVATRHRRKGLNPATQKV

OsSRT1 (FL) [2] = molecular target: T1, OsSRT1 (FL); assay: dot blot deacetylation assay, H3K9Ac; type: biochemical; remark: listed apart in the source

Structure (SMILES)	IC50 (OsSRT1 (FL) [1])	also measured
NC(=O)c1cccnc1 [NAM]	147 ± 21 µM	
Nc1ncnc2c1ncn2[C@@H]1O[C@H](COP(=O)(O)OP(=O)(O)OC[C@H]2OC(O)[C@H](O)[C@@H]2O)[C@@H](O)[C@H]1O (stereo partly shown) [ADP-ribose]		IC50 (OsSRT1 (FL) [1]; H3K9Ac deacetylation, product inhibition): 25 ± 2 µM
Oc1ccc(/C=C/c2cc(O)cc(O)c2)cc1 [resveratrol]		EC50 (OsSRT1 (FL) [2]): 236 ± 12 µM
CCCC(=O)O [sodium butyrate]	98 ± 15 µM	
